Laboratory results: patent US8492148B2, “Method for amplification of endothelial progenitor cell in vitro” (Foundation for Biomedical Research & Innovation, priority 2005, dated 2013)
“Also recorded” adds a separate entry of the source.

Tested on: cord blood CD133 positive cell-derived EPC
Assay: EPC colony assay (methylcellulose medium containing physiologically active substances)
Assay type: cell-based
Settings: 1 μM TGF-β inhibitor in serum-free culture medium (compared with 0, 0.1, 10 μM); cultivation for 2 weeks
Method: Using the serum-free culture media of the present invention containing various concentrations of TGF-β inhibitor as prepared in Example 1, cord blood CD133 positive cell-derived EPC was expanded in vitro and differentiated. The degree of expansion was evaluated by counting the number of colonies, and the degree of differentiation was evaluated by separately counting the number of colonies of blood lineage cell and that of EPC. For EPC colony, moreover, large cell colonies and small cell colonies were separately counted, as well as the total number of EPC colonies was counted.
The cord blood-derived mononuclear cells were collected and cultivated in a serum-free culture medium in the same manner as in Example 1. […]
The number of colonies confirmed to be the EPC colonies was counted. The total number of colonies, the number of small cell colonies and the number of large cell colonies were separately counted.
For the blood lineage colony, the number of colonies of four kinds of colonies: erythroid burst-forming unit colony (BFU-E), granulocyte-macrophage lineage colony-forming unit colony (CFU-GM), macrophage colony-forming unit colony (CFU-M) and mixed colony (CFU-GEM) was added, and the appearance frequency thereof was determined over time. […]

## NC(=O)c1ccc(-c2nc(-c3ccc4c(c3)OCO4)c(-c3ccccn3)[nH]2)cc1 [TGF-β inhibitor, 4-(5-benzo[1.3]dioxol-5-yl-4-pyridin-2-yl-1H-imidazol-2-yl)-benzamide]
  number of EPC colonies per Dish and total number of EPC colonies: at maximum; also recorded: largest number of EPC colonies
